PubChem BioAssay AID1922 (Vanderbilt High Throughput Screening Facility, 2009)

Molecular target: ATP-sensitive inward rectifier potassium channel 1 (Homo sapiens) (UniProt P48048)
Test: PubChem AID 1922
Conditions: HEK-293 ROMK whole-cell patch clamp, % block, stronger effect = higher value

Sequence of ATP-sensitive inward rectifier potassium channel 1 (Homo sapiens) (P48048 whole entry, looked up): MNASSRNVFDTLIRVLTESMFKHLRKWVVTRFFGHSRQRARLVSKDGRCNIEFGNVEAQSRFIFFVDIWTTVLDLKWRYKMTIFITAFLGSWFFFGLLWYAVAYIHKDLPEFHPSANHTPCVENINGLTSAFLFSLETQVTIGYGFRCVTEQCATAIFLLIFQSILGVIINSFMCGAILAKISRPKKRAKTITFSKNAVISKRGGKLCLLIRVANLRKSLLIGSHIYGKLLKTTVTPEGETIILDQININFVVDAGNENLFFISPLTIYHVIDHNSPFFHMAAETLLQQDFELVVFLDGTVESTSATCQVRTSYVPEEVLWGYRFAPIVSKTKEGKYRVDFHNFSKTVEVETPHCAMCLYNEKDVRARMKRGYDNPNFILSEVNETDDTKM

Row | Compound | inhibition (ROMK block, at 1 µM) [%] | inhibition (ROMK block, at 3 µM) [%] | inhibition (at 10 µM) [%]
1 | O=[N+]([O-])c1ccc2nc(COCc3nc4ccc([N+](=O)[O-])cc4[nH]3)[nH]c2c1 | 62.6 | 78.3 | 88.7
2 | O=[N+]([O-])c1ccc(CN2CCOCCOCCN(Cc3ccc([N+](=O)[O-])cc3)CCOCC2)cc1 | 63.4 | 78.2 | 95.3
